Where a SMILES comes first, the peptide text is derived from it. [ ]: non-standard residue; d: D form. The star is where a group is joined. sY = N[C@@H](Cc1ccc(OS(=O)(=O)O)cc1)C(=O)O; Cbz = O=C(OCc1ccccc1)*; Boc = CC(C)(C)OC(=O)*
molecular target: T1, CCK receptor (pancreas) (Rattus norvegicus, UniProt P30551); test: CCK receptor binding (pancreas) method; I-CCK-8 pancreas assay (CCK-antagonism); design: species or system male Sprague-Dawley rat; conditions: 125I-CCK binding, rat pancreas membranes, 37° C., 30 minutes; read-out: Anti-CCK Activity IC50
T1 construct: The whole pancreas of a male Sprague-Dawley rat; from tissue; host or cells: whole pancreas of male Sprague-Dawley rat, washed membrane suspension
T1 sequence (P30551 1-444): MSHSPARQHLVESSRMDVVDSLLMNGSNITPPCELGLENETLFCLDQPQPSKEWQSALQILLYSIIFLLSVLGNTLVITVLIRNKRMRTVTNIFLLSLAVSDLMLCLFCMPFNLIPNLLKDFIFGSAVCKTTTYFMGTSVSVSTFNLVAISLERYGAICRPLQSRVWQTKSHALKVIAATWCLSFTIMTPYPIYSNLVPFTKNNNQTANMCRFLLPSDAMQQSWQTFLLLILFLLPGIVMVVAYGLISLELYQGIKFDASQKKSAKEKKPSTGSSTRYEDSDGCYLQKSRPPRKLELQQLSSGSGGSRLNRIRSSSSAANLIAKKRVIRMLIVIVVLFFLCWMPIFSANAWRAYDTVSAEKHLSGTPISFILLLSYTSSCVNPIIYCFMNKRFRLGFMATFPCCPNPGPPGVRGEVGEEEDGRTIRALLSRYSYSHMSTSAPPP
Text: Screening of the novel compounds according to the present invention to determine biological activity and obtain an IC50 value for them, in order to identify significant CCK-antagonism, may be accomplished using an ^125 I-CCK receptor binding assay and in vitro isolated tissue preparations. These tests involve the following:
CCK receptor binding (pancreas) method
CCK-33 is radiolabeled with ^125 I-Bolton Hunter reagent (2000 Ci/mmole), as described by Sankara et al. (J. Biol. Chem., 254, 9349-9351, 1979). Receptor binding is performed according to Innis and Snyder (Proc. Natl. Acad. Sci., 77, 6917-6921, 1980), with the minor modification of adding the additional protease inhibitors, phenyl-methane sulfonyl fluoride and o-phenanthroline, which have no effect on the ^125 I-CCK receptor binding assay.
The whole pancreas of a male Sprague-Dawley rat (200-350 g), which has been sacrificed by decapitation, is dissected free of fat tissue and homogenized in 20 volumes of ice-cold 50 mM Tris HCl (pH 7.7 at 25° C.) with a Brinkman Polytron PT-10. The homogenates are centrifuged at 48,000 g for 10 minutes, then the resulting pellets are resuspended in Tris Buffer, centrifuged as above, and resuspended in 200 volumes of binding assay buffer (50 mM Tris HCl, pH 7.7 at 25° C., 5 mM dithiothreitol, 0.1 mM bacitracin, 1.2 mM phenylmethane sulfonyl fluoride and 0.5 mM o-phenanthroline).
For the binding assay, 25 μl of buffer (for total binding), or unlabeled CCK-8 sulfate sufficient to give a final concentration of 1 μM of CCK-8 (for nonspecific binding), or the compounds of the formula of the compounds according to the instant invention (for determination of antagonism to ^125 I-CCK binding) and 25 μl of ^125 I-CCK-33 (30,000-40,000 cpm), are added to 450 μl of the membrane suspensions in microfuge tubes. All assays are run in duplicate or triplicate, and the reaction mixtures are incubated at 37° C. for 30 minutes and centrifuged in a Beckman Microfuge (4 minutes) immediately after adding 1 ml of ice-cold incubation buffer. The supernatant is aspirated and discarded, and the pellets are counted with a Beckman Gamma 5000.
Activity Testing with I-CCK-8 Pancreas Assay
The compounds of Examples 1-11 were tested as CCK-antagonists (pancreas assay) with the following results: […]

Structure (SMILES)	IC50 [µM]
CC(C)C[C@H]1C(=O)N2c3ccccc3[C@@](O)(C[C@@H]3NC(=O)c4ccccc4N4C(=O)c5ccccc5NC34)[C@H]2N1C(=O)C(CCCNC(=O)OCc1ccccc1)NC(=O)OC(C)(C)C (stereo partly drawn) [Example 11, 7-{{1-[2-((1,1-dimethylethoxy)carbonyl)amino-5-(phenylmethyloxycarbonyl)aminopentanoyl]-2,3,9,9Aα-tetrahydro-9α-hydroxy-2-(2-methylpropyl)-3-oxo-1H-imidazo(1,2-A)indol-9-yl}methyl}-6,7,7A,8-tetrahydro-5H,13-quinazolino(3,2-A)-1,4-benzodiazepin-5H,13-dione hydrate]	1.3
CC(C)C[C@H]1C(=O)N2c3ccccc3[C@@](O)(C[C@@H]3NC(=O)c4ccccc4N4C(=O)c5ccccc5NC34)[C@H]2N1O (stereo partly drawn) [Example 5, 7,7α-dihydro-7-[(2,3,9,9Aα-tetrahydro-1,9α-dihydroxy-2-(2-methylpropyl)-3-oxo-1H-imidazo-(1,2-A)-indol-9-yl)methyl]quinazolino(3,2-A)-1,4-benzodiazepin-5,13(6H,7H)-dione hydrate]	0.67

Next, values leading:

IC50 [µM]	Structure (SMILES)
46	CC(C)C[C@H]1C(=O)N2c3ccccc3[C@@](O)(C[C@@H]3NC(=O)c4ccccc4-n4c3nc3ccccc3c4=O)[C@H]2N1C(=O)[C@H](Cc1ccc(O)cc1)NC(=O)OC(C)(C)C [Example 8, 7-{{1-[2-((1,1-dimethylethoxy)carbonyl)amino-3-(4-hydroxyphenyl)propanoyl]-2,3,9,9Aα-tetrahydro-9α-hydroxy-2-(2-methylpropyl)-3-oxo-1H-imidazo(1,2-A)indol-9-yl}methyl}quinazolino(3,2-A)-1,4-benzodiazepin-5,13-(6H,7H)-dione hemihydrate]
5	CC(C)CC1C(=O)N2c3ccccc3C(O)(CC3NC(=O)c4ccccc4-n4c3nc3ccccc3c4=O)C2N1C(=O)OCc1ccccc1 (stereo not drawn) [Example 4]
0.35	CCN1[C@H]2N(C(=O)[C@@H]1CC(C)C)c1ccccc1[C@@]2(O)C[C@@H]1NC(=O)c2ccccc2N2C(=O)c3ccccc3NC12 (stereo partly drawn) [Example 3, 7-[(1-ethyl-2,3,9,9Aα-tetrahydro-9α-hydroxy-2-(2-methylpropyl)-3-oxo-1H-imidazo(1,2-A)indol-9-yl)methyl]-6,7,7A,8-tetrahydro-5H,13H-quinazolino-(3,2-A)-1,4-benzazepin-5H,13-dione hemihydrate]
100	CC(C)C[C@H]1C(=O)N2c3ccccc3[C@@](O)(C[C@@H]3NC(=O)c4ccccc4-n4c3nc3ccccc3c4=O)[C@H]2N1C(=O)C(CCCCNC(=O)OCc1ccccc1)NC(=O)OC(C)(C)C (stereo partly drawn) [Example 9, 7-{{1-[2-((1,1-dimethylethoxy)carbonyl)amino-6-(phenylmethyloxycarbonyl)aminohexanoyl]-2,3,9,9Aα-tetrahydro-9α-hydroxy-2-(2-methylpropyl)-3-oxo-1H-imidazo(1,2-A)indol-9-yl}methyl}quinazolino(3,2-A)-1,4-benzodiazepin-5,13-(6H,7H)-dione hydrate]
0.21	CC(C)C[C@@H]1N[C@H]2N(C1=O)c1ccccc1[C@@]2(O)C[C@@H]1NC(=O)c2ccccc2N2C(=O)c3ccccc3NC12 (stereo partly drawn) [Example 1, 7,7a-dihydro-7-[(2,3,9,9Aα-tetrahydro-9α-hydroxy-2-(2-methylpropyl)-3-oxo-1H-imidazo(1,2-a)indol-9-yl)methyl]quinazolino(3,2-a)(1,4)benzazepin-5,13-(6H,7H)dione hydrate]
4.3	CC(C)C[C@H]1C(=O)N2c3ccccc3[C@@](O)(C[C@@H]3NC(=O)c4ccccc4-n4c3nc3ccccc3c4=O)[C@H]2N1C(=O)C(CCCNC(=O)OCc1ccccc1)NC(=O)OC(C)(C)C (stereo partly drawn) [Example 10, 7-{{1-[2-((1,1-dimethylethoxy)carbonyl)amino-5-(phenylmethyloxycarbonyl)aminopentanoyl]-2,3,9,9Aα-tetrahydro-9α-hydroxy-2-(2-methylpropyl)-3-oxo-1H-imidazo(1,2-A)indol-9-yl}methyl}quinazolino(3,2-A)-1,4-benzodiazepin-5,13-(6H,7H)-dione]
22	CC(=O)N1[C@H]2N(C(=O)[C@@H]1CC(C)C)c1ccccc1[C@@]2(O)C[C@@H]1NC(=O)c2ccccc2-n2c1nc1ccccc1c2=O [Example 2, 7-[(1-acetyl-2,3,9,9Aα-tetrahydro-9α-hydroxy-2-(2-methylpropyl)-3-oxo-1H-imidazo(1,2-A)indol-9-yl)methyl]quinazolino(3,2-A)-1,4-benzodiazepin-5,13-(6H,7H)-dione]
100	CC(C)C[C@H]1C(=O)N2c3ccccc3[C@@](O)(C[C@@H]3NC(=O)c4ccccc4-n4c3nc3ccccc3c4=O)[C@H]2N1C(=O)[C@H](Cc1ccc(OCc2ccccc2)cc1)NC(=O)OC(C)(C)C [Example 7, 7-{{1-[N-((1,1-dimethylethoxy)carbonyl)-o-phenylmethyltryosyl]-2,3,9,9Aα-tetrahydro-9α-hydroxy-2-(2-methylpropyl)-3-oxo-1H-imidazo(1,2-A)indol-9-yl}methyl}quinazolino(3,2-A)-1,4-benzodiazepin-5,13-(6H,7H)-dione]
0.19	CC(C)CC1C(=O)N2c3ccccc3C(O)(CC3NC(=O)c4ccccc4-n4c3nc3ccccc3c4=O)C2N1CCCc1ccccc1 (stereo not drawn) [Example 6, 7-[1-(3-phenylpropyl)-2,3,9,9Aα-tetrahydro-9α-hydroxy-2-(2-methylpropyl)-3-oxo-1H-imidazo(1,2-A)indol-9-yl)methyl]-6,7,7A,8-tetrahydro-5H,13H-quinazolino(3,2-A)-1,4-benzazepin-5H,13-dione sesquihydrate]

same assay, conditions: added protease inhibitor in the binding assay

Structure (SMILES)	effect on the 125I-CCK receptor binding assay
c1cnc2c(c1)ccc1cccnc12 [o-phenanthroline, reference compound]	no effect
O=S(=O)(F)Cc1ccccc1 [phenyl-methane sulfonyl fluoride, reference compound]	no effect

tested on: CCK-receptor; test: not given; conditions: background; cited from earlier work

Structure (SMILES)	CCK-antagonism (in words)
CSCC[C@H](N)C(=O)N[C@@H](CC(=O)O)C(=O)N[C@@H](Cc1ccccc1)C(N)=O [Met--Asp--Phe--NH2] (H-Met-Asp-Phe-NH2)	can function as CCK-antagonists
CCCC(=O)Nc1nc2c(ncn2[C@@H]2O[C@@H]3COP(=O)(O)O[C@H]3[C@H]2OC(=O)CCC)c(=O)[nH]1 [dibutyryl cyclic GMP]	the most potent
CSCC[C@H](NC(=O)OC(C)(C)C)C(=O)N[C@@H](CC(=O)O)C(=O)N[C@@H](Cc1ccccc1)C(N)=O [Boc--Met--Asp--Phe--NH2] (Boc-Met-Asp-Phe-NH2)	can function as CCK-antagonists
CSCC[C@H](NC(=O)[C@H](Cc1ccc(OS(=O)(=O)O)cc1)NC(=O)OCc1ccccc1)C(=O)NCC(=O)N[C@@H](Cc1c[nH]c2ccccc12)C(=O)N[C@@H](CCSC)C(=O)N[C@@H](CC(=O)O)C(N)=O [Cbz--Tyr(SO3 H)--Met--Gly--Trp--Met--Asp--NH2] (Cbz-[sY]MGWMD-NH2)	can function as CCK-antagonists
CC(C)C[C@@H]1N[C@H]2N(C1=O)c1ccccc1[C@@]2(O)C[C@@H]1NC(=O)c2ccccc2-n2c1nc1ccccc1c2=O [formula (I), 7β-((2,3,9,9Aα-tetrahydro-9α-hydroxy-2-(2-methylpropyl)-3-oxo-1H-imidazo-(1,2-A)-indol-9-yl)-methyl)quinazolino(3,2-A)(1,4)benzodiazepin-5,13-(6H,7H)dione]	has been shown to be a CCK-antagonist
